Assay results taken from patent US20260071150A1, “MICROBIAL ENHANCED COMPOSITIONS WHICH OVERCOME ANTAGONISTIC SURFACTANT INCOMPATIBILITY” (Stepan Company, priority 2023, published 2026).
Like-named read-outs stand apart in the source and are kept apart here.

Columns and labels:
[1] = tested on: Bacillus species mix in spore form; assay: dyed extra-virgin olive oil (EVOO) digestion test with Stat-Ease 360 optimization; format: cell-based
Procedure: Because EVOO is a food source for vegetative cells, lightly-dyed EVOO added to a test sample containing bacterial spores can be an indicator of biological activity. […] Each test composition also included 0.20 g of 33 g/L Nutrient Mix (30 g/L Tryptic Soy Broth BD211825 and 3 g/L Yeast Extract BD212750 at pH 7.1-7.4). The test composition is mixed, then stored at 37° C. for 2-3 days to condition the spores. […] The initial oil drop is digitally photographed, and re-photographed after 4 days of gentle swirling on an orbital shaker at a setting of 1-2 on a scale of 0-10. Oil drop sizes are determined by transferring the photographed images to a computer and measuring the major diameter of each oil drop using a Tracker.jar line profile analysis (https://physlets.org/tracker/) to determine the length of the diameter in units of pixels. Oil drop sizes of initial and digested test samples are compared. […] An increase in measured drop diameter is interpreted as a change in surface tension due to the surfactant, combined with no or minimal EVOO digestion by the bacteria.
Stat-Ease 360 software was used to generate each design of experiment sample group, model the test results from the resulting data, and generate statistics for the optimal models. The models were then used to generate an optimization plot using Stat-Ease 360's Numerical Optimization function. The optimization includes a contour plot of “desirability” of component levels for the defined design space. These plots visually represent the complex relationships between the surfactant and additive components and show where desired performance is high and where it is low or zero.

[2] = physical stability (spore dispersion) of test compositions; format: physicochemical
Procedure: The alpha sulfonated alkyl ester test compositions from Example 3 were used for this stability assessment because, unexpectedly, the spores in some of the test compositions remained fully dispersed in the compositions after sitting for 1 week, even though the test compositions were at use dilution and water thin. Physical stability of the test compositions was assessed by photographing the test compositions in the parent sample jars (from which the Example 3 samples were taken), looking down on the sample jars, and quantifying the degree of precipitation via Tracker.jar image analysis.

[3] = tested on: Bacillus species mix in spore form; assay: un-dyed EVOO test, visual haze; conditions: for biological activity (haze), magnesium salt in the additive: 0.2 wt % rhamnolipids, 0.03 wt % L-alanine, 0.03 wt % potassium nitrate, 0.14 wt % magnesium salt; for biological activity (haze), low foam alkoxylate with additives: 1.0 wt % TOXIMUL 8240, 0.09 wt % L-alanine
Procedure: Comparative compositions were also prepared comprising the surfactant and bacterial spores, but no additive. Control compositions contained the bacterial spores, with and without additives, but no surfactant. All test, comparative and control compositions contained 2 wt % of 3.3 g/L Nutrient Mix. The pH was adjusted to pH of 7 if needed, using L-lactic acid or dilute NaOH. The compositions were photographed initially, then re-photographed after 4 and 5-7 days of orbital-mixer shaking at setting “5”, and initial and aged compositions were compared visually to determine differences.

[4] = tested on: beneficial microorganisms; assay: compatibility of surfactants and builders with beneficial microorganisms; format: cell-based
Procedure: The compositions of the present technology comprise at least one surfactant that is incompatible with a beneficial microorganism. Incompatibility between a surfactant and a beneficial microorganism has been investigated in various ways, such as a standard Zone of Inhibition test, a standard agar plating test, or a standard resazurin (7-hydroxy-10-oxidophenoxazin-10-ium-3-one, sodium) (a blue fluorogenic dye) compatibility assay. In a Zone of Inhibition test, microorganisms are grown, cultured, diluted down to target levels, and then applied to a Petri dish containing agar nutrients. Test samples containing the surfactant of interest are diluted and loaded into an agar well created within the agar nutrient. The plates are incubated and microorganism growth is allowed to develop. […] This halo is referred to as the zone of inhibition. The larger the zone, the bigger the effect of inhibition. Major suitability limitations for non-antibiotics test samples for this test method are inherent large dilution of active, agar diffusion challenges, and nutrient media incompatibilities (neutralization, precipitation, etc). Although this method has been used in the medical field for antibiotics very successfully for decades, it has low suitability when testing non-antibiotic samples. In a standard agar plating test, test samples containing the surfactant of interest and microorganisms are exposed, diluted several orders of magnitude, and plated onto a nutritive agar that is incubated. After an incubation period appropriate for the species, the microorganism growth pattern is evaluated against appropriate controls. […] The test samples are incubated and then inspected for colorometric and fluorescence change. Test samples that are blue and have low fluorescence indicate no biological activity and incompatibility between the surfactant and the microorganism. Test samples that are pink and have high fluorescence indicate biological activity and compatibility of the surfactant with the microorganism. […]

Bacillus spore blend = assay: diluted concentrate EVOO haze test; format: cell-based
Procedure: Concentrates of two test formulations were prepared comprising the alkyl ether sulfate surfactant at 7.5 wt % actives, a Bacillus spore blend at 10.0 wt % (5×10^9 CFU/g), a mixture of 0.75 wt % potassium chloride and 0.75 wt % magnesium nitrate, and water to total 100%. Castor oil 36EO alkoxylate (TOXIMUL® 8240) (100% active) in an amount of 1.5 wt % was added to one of the test formulations. Two comparative concentrate compositions were also prepared. One comparative composition comprised the same amount of surfactant and spores but no additive or TOXIMUL® 8240, and the other comparative composition comprised the same amount of surfactant, spores, and TOXIMUL® 8240, but no additive. A total of 20 g of each concentrate composition was prepared.
For the test, each concentrate composition was diluted to 2.0 wt % (1×10^8 CFU/g) in a 4 oz glass jar, with 1 wt % 33 g/L Nutrient (30 g/L Tryptic Soy Broth+3 g/L Yeast Extract), 0.2 wt % Extra Virgin Olive Oil (EVOO), and water to total 50.0 g total weight. The jars were mixed on the orbital shaker for 15-30 minutes and initially photographed, and then mixed on the orbital shaker for 7 days and re-photographed.
Concentrates of the four test formulations were prepared comprising the calcium alkyl benzene sulfonate surfactant at 7.5 wt % actives, a Bacillus spore blend at 10.0 wt % (5×10^9 CFU/g), 1.5 wt % of the respective additive mixture, and water to total 100%. Each concentrate was 20 g total weight. Two control concentrates were also prepared. The positive control concentrate contained 10 wt % of the Bacillus spore blend and water, and the negative control concentrate contained 10 wt % of the Bacillus spore blend, 7.5 wt % surfactant actives, and water.

[5] = alkyl sarcosinate MAPROSYL 30-B, FIG. 3
[6] = alpha-sulfonated alkyl ester ALPHA-STEP PC-48, additives with glucose, FIG. 5
[7] = alpha-sulfonated alkyl ester ALPHA-STEP PC-48, additives without glucose, FIG. 4
[8] = surfactant 0.2 wt % active, 0.09 wt % potassium nitrate, 0.02 wt % magnesium chloride hexahydrate, 7 days
[9] = concentrate 7.5 wt % surfactant actives diluted to 2.0 wt %

## O=[N+]([O-])[O-].[K+] [KNO3, potassium nitrate]
[1]; [5]
  desirability (optimization contour plot of EVOO digestion): high desirability
[1]; [6]
  desirability (optimization contour plot of EVOO digestion): high desirability
[1]; [7]
  desirability (optimization contour plot of EVOO digestion): high desirability
[2]; alpha sulfonated alkyl ester test compositions of Example 3, FIG. 10
  desirability (contour plot combining digestion and physical stability): higher desirability

## C[C@H](N)C(=O)O [L-alanine]
[1]; [5]
  desirability (optimization contour plot of EVOO digestion): high desirability
[1]; [6]
  desirability (optimization contour plot of EVOO digestion): low to zero desirability
[1]; [7]
  desirability (optimization contour plot of EVOO digestion): high desirability
[1]; rhamnolipid surfactant, additives without glucose, FIG. 1
  desirability (optimization contour plot of EVOO digestion): high desirability
[2]
  desirability (contour plot combining digestion and physical stability): higher desirability

## O=C([O-])CC(O)(CC(=O)[O-])C(=O)O.[Mg+2] [Mg(Citrate) dibasic]
[3]; 7 days
  biological activity (haze), magnesium salt in the additive: restore biological activity

## O=[N+]([O-])[O-].O=[N+]([O-])[O-].[Mg+2] [Mg(NO3)2, magnesium nitrate]
[3]; 7 days
  biological activity (haze), magnesium salt in the additive: restore biological activity

## O=S(=O)([O-])[O-].[Mg+2] [MgSO4, magnesium sulfate]
[3]; 7 days
  biological activity (haze), magnesium salt in the additive: restore biological activity

## C=CCCCCCCCC(=O)N(C)C [STEPOSOL MET-10U]
[4]
  compatibility with beneficial microorganisms: compatible

## O.O.O=C([O-])CC(O)(CC(=O)[O-])C(=O)[O-].[Na+].[Na+].[Na+] [sodium citrate dihydrate]
[4]
  compatibility with beneficial microorganisms: compatible

## O=C([O-])[C@H](O)[C@@H](O)[C@H](O)[C@H](O)CO.[Na+] [sodium gluconate]
[4]
  compatibility with beneficial microorganisms: compatible

## C12-C14 monoethanolamide-7EO-4PO [C42 MEA Amide-7EO-4PO]
[3]; [8]
  biological activity (haze), low foam alkoxylate with additives: increased biological activity

## calcium alkyl benzene sulfonate
Bacillus spore blend; 7.5 wt % surfactant actives, 0.5 wt % of each of L-alanine, Mg(NO3)2 and KCl, diluted to 2.0 wt %
  haze after 7 days, equal amounts of the additive components: some increase in haze
Bacillus spore blend; 7.5 wt % surfactant actives, 1.0 wt % L-Alanine + 0.25 wt % each of KCl and Mg(NO3)2, diluted to 2.0 wt %
  haze after 7 days, L-alanine as the majority additive component: some increase in haze
Bacillus spore blend; 7.5 wt % surfactant actives, 1.0 wt % Mg(NO3)2 and 0.25 wt % each of L-alanine and KCl, diluted to 2.0 wt %
  haze after 7 days, Mg(NO3)2 as the majority additive component: some increase in haze
Bacillus spore blend; [9]
  haziness after 7 days, surfactant without additive (negative control): reduced haziness

## cocoamidopropyl hydroxysultaine [AMPHOSOL® CS-50]
[3]; surfactant 0.2 wt % active, 0.09 wt % L-alanine, 0.09 wt % potassium nitrate, 0.02 wt % magnesium chloride hexahydrate, 7 days
  biological activity (haze) of bacterial spores, surfactant with additives: shows haze, indicative of biological activity
[3]; surfactant 0.2 wt % active, no additive, 1×10^7 CFU/g, 7 days orbital shaking
  biological activity (haze) of bacterial spores, surfactant without additives: inhibits biological activity

## isodecyl-1PO-8EO [DA-1PO-8EO]
[3]; [8]
  biological activity (haze), low foam alkoxylate with additives: increased biological activity
[3]; surfactant 0.2 wt % active, 1.0 wt % TOXIMUL 8240, no additive, 7 days
  biological activity (haze), low foam alkoxylate without additives: the most sign of inhibition

## sodium laureth sulfate [alkyl ether sulfate]
Bacillus spore blend; [9]
  haze after 7 days, 1.5 wt % TOXIMUL 8240, no additive: lack of haze
  haze after 7 days, no additive, no TOXIMUL 8240: lack of haze
Bacillus spore blend; concentrate 7.5 wt % surfactant actives, 0.75 wt % potassium chloride, 0.75 wt % magnesium nitrate, 1.5 wt % TOXIMUL 8240, diluted to 2.0 wt %
  haze after 7 days, additive and TOXIMUL 8240: increase in haze
Bacillus spore blend; concentrate 7.5 wt % surfactant actives, 0.75 wt % potassium chloride, 0.75 wt % magnesium nitrate, diluted to 2.0 wt %
  haze after 7 days, additive, no TOXIMUL 8240: lack of haze
